# ChEMBL document CHEMBL4715910, “Insights into non-peptide small-molecule inhibitors of the PD-1/PD-L1 interaction: Development and perspective” (Bioorg Med Chem, 2021)
# Test system: Jurkat
# Assay: Cytotoxicity against human Jurkat T cells assessed as reduction in cell viability
# Type: cell-based
row,Structure (SMILES),IC50
1,Cc1cc(CN[C@H](CO)C(=O)O)c(OCc2cccc(C#N)c2)cc1OCc1cccc(-c2ccc3c(c2)OCCO3)c1C,< 100 nM

# Molecular target: Programmed cell death protein 1/Programmed cell death 1 ligand 1 (Homo sapiens, UniProt Q15116+Q9NZQ7)
# Sequence (Q15116 whole entry): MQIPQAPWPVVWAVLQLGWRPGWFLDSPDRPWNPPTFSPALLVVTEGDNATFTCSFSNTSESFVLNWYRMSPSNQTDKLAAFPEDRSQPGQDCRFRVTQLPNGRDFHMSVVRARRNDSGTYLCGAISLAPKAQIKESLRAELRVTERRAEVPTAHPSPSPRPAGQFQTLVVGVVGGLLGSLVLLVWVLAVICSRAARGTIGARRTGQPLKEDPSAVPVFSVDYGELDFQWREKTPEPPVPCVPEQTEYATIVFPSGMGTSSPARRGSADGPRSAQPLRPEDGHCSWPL
# Sequence (Q9NZQ7 whole entry): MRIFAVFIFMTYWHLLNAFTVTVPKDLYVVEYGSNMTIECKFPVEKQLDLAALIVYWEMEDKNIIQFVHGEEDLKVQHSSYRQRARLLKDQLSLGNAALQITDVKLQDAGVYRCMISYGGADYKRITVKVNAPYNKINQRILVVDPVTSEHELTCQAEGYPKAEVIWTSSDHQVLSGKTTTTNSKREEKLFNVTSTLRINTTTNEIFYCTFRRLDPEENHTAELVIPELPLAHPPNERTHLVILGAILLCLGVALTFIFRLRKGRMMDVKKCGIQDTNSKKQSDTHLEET
# Assay: Inhibition of PD-1/PDL1 (unknown origin) by ELISA
# Type: protein-complex assay
row,Structure (SMILES),IC50
1,Cc1c(COc2ccc(CN3CCCC[C@H]3C(=O)O)cc2Br)cccc1-c1cccc(COc2ccc(CN3CCCC[C@H]3C(=O)O)cc2Br)c1C,≤ 10 nM
2,Cc1cc(C(=O)Nc2cccc(-c3ccccc3)c2C)ncc1CNCCO,≤ 10 nM
3,Cc1cc(CNCCO)ccc1OCc1cccc(-c2cccc(COc3ccc(CNCCO)cc3C)c2C)c1C,≤ 10 nM
4,Cc1c(-c2ccccc2)cccc1-c1nc2cc(CNCCO)ccc2o1,≤ 10 nM
5,Cc1cc(C(=O)Nc2cccc(-c3ccccc3)c2C)ncc1CN1CCCC[C@H]1C(=O)O,≤ 10 nM
6,Cc1c(Nc2nccc3c(CN4CCCCC4C(=O)O)ccnc23)cccc1-c1ccccc1 (stereo not given),≤ 10 nM
7,Cc1c(Nc2nccc3ccc(CNCCO)nc23)cccc1-c1ccccc1,≤ 10 nM
8,Cc1c(-c2ccccc2)cccc1-c1nc2cc(CN3CCCC[C@H]3C(=O)O)cc(C)c2o1,≤ 10 nM

# Molecular target: Programmed cell death 1 ligand 1 (Homo sapiens) (UniProt Q9NZQ7)
# Sequence (Q9NZQ7 whole entry): as above
# Description: Binding affinity to human PDL1 (18 to 134 residues) expressed in Escherichia coli BL21 (DE3) cells assessed as melting temperature by differential scanning fluorimetry (Rvb = 35.4 degreec)
row,Structure (SMILES),Tm
1,COc1nc(OCc2cccc(-c3ccccc3)c2C)ccc1CNCCNC(C)=O,48.4 °C
